Measurements reported in US11634389B2 (priority 2018, dated 2023).

Tested on: Monilinia fructicola isolate
Assay: Radial mycelial growth on SDHI-amended PDA, Monilinia fructicola isolate (FIG. 4)
Assay type: cell-based
Conditions: versus positive control fluxapyroxad
Description: FIG. 4 depicts the fungicidal performance of a compound according to the disclosure (“1831”) against Monilinia fructicola isolate against a blank control, as compared to fluxapyroxad, a commercially available fungicide (“fluxa”).
The inhibitory effects of these SDHI compounds were evaluated against the various pathogenic isolates grown on half-strength potato dextrose agar (PDA) amended with a given SDHI. SDHIs were formulated as 10,000 ppm stocks in DMSO. Inoculated media were prepared using a ratio of 12 g potato dextrose broth powder to 15 g agar to 1 L of deionized water. Upon autoclaving and cooling to 55° C., the media were inoculated with the SDHI compound of interest (1 mL of 10,000 ppm stock in 1 L media) then poured into plates. This method represented a 10 ppm trial for the SDHI compound. Mycelial plugs were cut from the leading growth of active fungal colonies (supported on full PDA media) and placed mycelia-down in the center of a plate. After an appropriate number of days (3-14 days, depending on pathogen), the radial growth was measured (average of three plates), and reported as the radial mycelial growth or as radial mycelial growth relative to a control. An analogous procedure was employed to determine the EC50 value by varying the concentration of the initial SDHI compound DMSO stock. […]

Cn1ncc(C(=O)NC23CCC(c4ccccc42)C3(C)C)c1Cl (stereo not shown) [compound 1831]
radial growth relative to that seen with fluxapyroxad: about half
